Drawing on ChEMBL document CHEMBL5727880, “Amide compounds as kinase inhibitors, compositions and methods of treatment” (2020), this text covers IC50 for 1 compound.

The target of this assay is Rho-associated protein kinase 2 (Homo sapiens, UniProt O75116). As to the kind of experiment: Kinase Inhibition Assay: The following assay protocol is for measuring the phosphorylation of a peptide substrate (FAM-[…]-OH wherein FAM is carboxyfluorescein). The peptide is >98% purity by Capillary Electrophoresis. The peptide is phosphorylated by the protein kinase ROCK1 or ROCK2. The ROCK1 or ROCK2 enzyme, substrate, and cofactors (ATP and Mg2+) are combined in a well of a microtiter plate and incubated for 3 hours at 25° C. in the presence or absence of an inhibitor compound. At the end of the incubation, the reaction is quenched by the addition of an EDTA-containing buffer. The substrate and product are separated and quantified electrophoretically using the microfluidic-based LABCHIP® 3000 Drug Discovery System from Caliper Life Sciences (Hopkinton, Mass.).The components of the assay mixture are:100 mM HEPES, pH 7.50.1% BSA0.01% Triton X-1001 mM DTT10 mM MgCl210 μM Sodium Orthovanadate10 LM Beta-Glycerophosphate5 μM ATP (for ROCK1) or 7 μM ATP (for ROCK2)1% DMSO (from compound)1.25 μM FAM-[…]-OH3 nM ROCK1 or 2.5 nM ROCK2 enzymeSubstrate and product peptides present in each sample are separated electrophoretically using the LABCHIP® 3000 capillary electrophoresis instrument. As substrate and product peptides are separated two peaks of fluorescence are observed. […].
Rho-associated protein kinase 2, sequence (O75116 whole entry): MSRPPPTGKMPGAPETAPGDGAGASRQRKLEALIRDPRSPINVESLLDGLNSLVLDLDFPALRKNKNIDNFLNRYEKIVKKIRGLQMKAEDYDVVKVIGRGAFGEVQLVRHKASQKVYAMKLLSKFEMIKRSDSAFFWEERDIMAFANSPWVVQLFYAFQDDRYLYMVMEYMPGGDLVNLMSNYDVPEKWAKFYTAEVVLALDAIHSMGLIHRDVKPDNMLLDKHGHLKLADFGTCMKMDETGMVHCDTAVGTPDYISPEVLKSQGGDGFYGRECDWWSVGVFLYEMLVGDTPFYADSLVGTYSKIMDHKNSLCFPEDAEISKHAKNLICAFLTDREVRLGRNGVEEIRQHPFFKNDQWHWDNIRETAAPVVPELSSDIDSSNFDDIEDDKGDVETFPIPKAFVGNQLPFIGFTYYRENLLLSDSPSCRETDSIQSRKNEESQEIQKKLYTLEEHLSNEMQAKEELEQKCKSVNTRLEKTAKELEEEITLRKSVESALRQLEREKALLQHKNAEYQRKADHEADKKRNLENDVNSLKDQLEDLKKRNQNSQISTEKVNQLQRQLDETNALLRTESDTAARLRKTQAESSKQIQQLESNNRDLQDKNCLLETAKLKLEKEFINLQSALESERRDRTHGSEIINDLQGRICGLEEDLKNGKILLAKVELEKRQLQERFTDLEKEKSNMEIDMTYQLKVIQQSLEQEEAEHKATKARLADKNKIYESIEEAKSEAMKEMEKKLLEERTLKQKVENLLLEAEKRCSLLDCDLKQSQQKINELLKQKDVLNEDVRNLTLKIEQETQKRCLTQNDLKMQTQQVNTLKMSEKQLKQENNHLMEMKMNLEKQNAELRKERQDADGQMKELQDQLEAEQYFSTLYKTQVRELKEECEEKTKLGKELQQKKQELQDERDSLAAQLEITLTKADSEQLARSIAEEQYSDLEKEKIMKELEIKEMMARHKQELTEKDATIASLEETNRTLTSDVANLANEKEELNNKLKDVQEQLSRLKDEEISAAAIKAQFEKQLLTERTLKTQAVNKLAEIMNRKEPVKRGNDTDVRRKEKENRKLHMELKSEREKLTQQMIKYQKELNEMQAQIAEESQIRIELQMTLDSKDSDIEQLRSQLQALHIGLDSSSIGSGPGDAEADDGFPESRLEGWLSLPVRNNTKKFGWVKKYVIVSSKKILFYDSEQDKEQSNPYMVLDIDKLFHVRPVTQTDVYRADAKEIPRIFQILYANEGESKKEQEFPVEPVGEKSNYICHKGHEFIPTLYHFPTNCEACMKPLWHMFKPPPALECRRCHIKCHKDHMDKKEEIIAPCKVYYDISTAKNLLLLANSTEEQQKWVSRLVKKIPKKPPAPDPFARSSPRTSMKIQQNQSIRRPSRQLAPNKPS

Consider `C[C@@H](NC(=O)c1ccc(-c2ccncc2)cc1)c1cccc(C(=O)NC2CCCC2)c1`, for which the IC50 was 1.2 nM.
